Results: US12227488B2, “Small molecule degraders of Helios and methods of use” (DANA-FARBER CANCER INSTITUTE, INC., priority 2018, dated 2025)

Legend:
CRBN and Helios (IKZF2) = biological target: T1, CRBN and Helios (IKZF2) (Homo sapiens, UniProt Q96SW2+Q9UKS7); experiment: TR-FRET dimerization assay (CRBN-IKZF2 ternary complex formation); assay type: binding; conditions: n=1
T1 construct: His (N); Strep (N)
Outline: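 BODIPY-labeled DDB1ΔB-CRBN and in vitro biotinylated IKZF2 were treated with increasing compound concentrations plus tracer Terbium-Streptavidin and incubated 15 min at rt. Recruitment was quantified as the 520/490 nm TR-FRET ratio; values are single measurements (n=1), each averaged from at least three technical replicates.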

IKZF2 = experiment: Cellular degradation assay, eGFP-IKZF2Δ fusion with mCherry reporter in Flp-In 293 cells; assay type: cell-based; conditions: 5 h incubation, n=1
Outline: (§1)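 Flp-In 293 cells stably expressing eGFP-tagged degron fusions with P2A-mCherry reporter were treated with compound titrations (0.5% DMSO) for 5 hours. Imaging quantified GFP-positive/mCherry-positive cell fraction per well; DC50 at 5 h from nonlinear variable-slope fit.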

IKZF1 = biological target: T2, IKZF1 (Homo sapiens, UniProt Q13422); experiment: Cellular degradation assay, eGFP-IKZF1Δ fusion with mCherry reporter in Flp-In 293 cells; assay type: cell-based; conditions: 5 h incubation, n=1
T2 construct: expressed in transfected cells; host or cells: Flp-In 293
T2 sequence (Q13422 83-213 isoform Q13422-7 limits assumed): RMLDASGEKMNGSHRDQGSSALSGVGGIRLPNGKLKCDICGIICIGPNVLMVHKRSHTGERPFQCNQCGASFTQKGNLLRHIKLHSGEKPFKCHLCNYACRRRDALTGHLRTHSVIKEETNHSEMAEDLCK
T2 sequence (Q96SW2 whole entry partner, the tested form may be a part): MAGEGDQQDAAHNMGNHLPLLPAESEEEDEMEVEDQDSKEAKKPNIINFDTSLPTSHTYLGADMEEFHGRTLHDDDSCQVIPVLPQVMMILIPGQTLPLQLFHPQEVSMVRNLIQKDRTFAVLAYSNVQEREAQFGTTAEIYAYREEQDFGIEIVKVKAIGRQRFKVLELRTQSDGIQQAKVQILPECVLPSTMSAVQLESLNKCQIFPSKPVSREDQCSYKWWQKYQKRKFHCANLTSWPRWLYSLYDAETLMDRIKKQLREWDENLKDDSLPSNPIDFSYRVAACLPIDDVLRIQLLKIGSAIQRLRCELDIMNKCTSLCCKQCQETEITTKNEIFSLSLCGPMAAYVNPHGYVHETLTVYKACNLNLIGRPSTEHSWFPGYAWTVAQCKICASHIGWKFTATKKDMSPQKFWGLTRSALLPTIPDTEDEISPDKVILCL
T2 sequence (Q16531 2-1140 partner limits assumed): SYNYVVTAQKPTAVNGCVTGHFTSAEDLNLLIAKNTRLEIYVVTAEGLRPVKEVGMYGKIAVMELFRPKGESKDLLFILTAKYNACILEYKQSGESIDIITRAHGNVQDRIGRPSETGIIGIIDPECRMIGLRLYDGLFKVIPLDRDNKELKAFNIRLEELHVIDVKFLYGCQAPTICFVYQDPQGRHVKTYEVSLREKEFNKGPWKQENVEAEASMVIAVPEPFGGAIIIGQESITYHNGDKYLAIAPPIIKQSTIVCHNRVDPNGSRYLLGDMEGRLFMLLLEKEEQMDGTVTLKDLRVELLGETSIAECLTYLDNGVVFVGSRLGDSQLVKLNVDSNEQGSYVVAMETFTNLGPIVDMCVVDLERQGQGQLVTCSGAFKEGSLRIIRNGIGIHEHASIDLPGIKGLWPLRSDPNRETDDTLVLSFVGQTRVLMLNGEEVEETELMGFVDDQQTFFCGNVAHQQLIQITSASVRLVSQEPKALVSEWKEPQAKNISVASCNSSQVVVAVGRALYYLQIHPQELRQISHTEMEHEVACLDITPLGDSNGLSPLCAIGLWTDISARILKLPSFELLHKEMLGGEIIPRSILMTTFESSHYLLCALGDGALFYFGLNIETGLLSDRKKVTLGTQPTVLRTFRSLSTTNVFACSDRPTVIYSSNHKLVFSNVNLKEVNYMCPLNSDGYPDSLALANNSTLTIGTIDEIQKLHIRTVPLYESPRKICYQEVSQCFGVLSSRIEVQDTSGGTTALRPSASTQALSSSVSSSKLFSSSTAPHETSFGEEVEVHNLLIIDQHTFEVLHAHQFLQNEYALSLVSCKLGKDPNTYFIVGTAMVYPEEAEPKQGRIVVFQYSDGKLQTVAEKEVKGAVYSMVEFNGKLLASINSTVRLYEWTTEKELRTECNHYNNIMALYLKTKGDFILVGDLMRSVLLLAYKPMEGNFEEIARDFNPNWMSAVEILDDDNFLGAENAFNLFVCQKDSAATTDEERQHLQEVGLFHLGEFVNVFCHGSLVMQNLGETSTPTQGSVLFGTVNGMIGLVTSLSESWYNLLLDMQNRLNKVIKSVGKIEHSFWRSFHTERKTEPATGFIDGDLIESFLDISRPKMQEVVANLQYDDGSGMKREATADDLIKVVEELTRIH
Outline: as §1

SALL4 ZNF1-2 = biological target: T3, SALL4 ZNF1-2 (Homo sapiens, UniProt Q96SW2+Q9UJQ4); experiment: Cellular degradation assay, eGFP-SALL4 ZnF1-2 fusion with mCherry reporter in Flp-In 293 cells; assay type: cell-based; conditions: 5 h incubation, n=1
T3 construct: IKZF1Δ, IKZF2Δ, GSPT1 and SALL4 ZnF1-2 were subcloned; expressed in transfected cells; host or cells: Flp-In 293
T3 sequence (Q9UJQ4 378-438 limits assumed): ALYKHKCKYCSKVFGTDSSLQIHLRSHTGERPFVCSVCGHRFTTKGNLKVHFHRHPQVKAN
T3 sequence (Q96SW2 whole entry, the tested form may be a part): as the sequence (Q96SW2 whole entry partner, the tested form may be a part) above
T3 sequence (Q16531 whole entry partner, the tested form may be a part): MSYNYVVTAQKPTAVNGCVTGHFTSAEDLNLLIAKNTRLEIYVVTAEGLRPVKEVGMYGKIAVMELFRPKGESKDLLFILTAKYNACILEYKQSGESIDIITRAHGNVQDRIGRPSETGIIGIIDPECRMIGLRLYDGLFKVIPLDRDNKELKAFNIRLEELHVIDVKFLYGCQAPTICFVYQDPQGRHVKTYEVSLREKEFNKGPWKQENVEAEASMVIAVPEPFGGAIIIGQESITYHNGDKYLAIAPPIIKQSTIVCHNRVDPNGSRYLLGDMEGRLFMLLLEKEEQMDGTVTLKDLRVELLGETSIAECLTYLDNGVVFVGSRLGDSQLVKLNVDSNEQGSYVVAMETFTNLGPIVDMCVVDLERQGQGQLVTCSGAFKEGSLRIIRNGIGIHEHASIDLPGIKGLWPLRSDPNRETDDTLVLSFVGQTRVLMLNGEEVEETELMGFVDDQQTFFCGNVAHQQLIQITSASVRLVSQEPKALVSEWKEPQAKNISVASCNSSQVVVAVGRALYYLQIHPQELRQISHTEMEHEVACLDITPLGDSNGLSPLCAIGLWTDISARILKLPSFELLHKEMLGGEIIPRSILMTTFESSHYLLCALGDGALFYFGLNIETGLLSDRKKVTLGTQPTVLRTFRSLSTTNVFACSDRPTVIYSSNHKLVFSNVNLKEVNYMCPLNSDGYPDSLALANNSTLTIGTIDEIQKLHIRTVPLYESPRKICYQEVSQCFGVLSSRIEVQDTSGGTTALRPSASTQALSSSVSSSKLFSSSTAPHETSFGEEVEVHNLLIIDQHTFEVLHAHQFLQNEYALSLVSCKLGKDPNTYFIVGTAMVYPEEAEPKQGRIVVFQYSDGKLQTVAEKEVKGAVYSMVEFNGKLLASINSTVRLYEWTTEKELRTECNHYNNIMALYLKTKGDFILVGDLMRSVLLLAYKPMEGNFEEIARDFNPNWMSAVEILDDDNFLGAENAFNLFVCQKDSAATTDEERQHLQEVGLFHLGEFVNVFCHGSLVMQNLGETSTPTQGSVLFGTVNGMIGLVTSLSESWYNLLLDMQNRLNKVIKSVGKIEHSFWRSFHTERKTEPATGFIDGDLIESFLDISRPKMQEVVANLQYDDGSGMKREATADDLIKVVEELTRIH
Outline: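 Flp-In 293 cells stably expressing eGFP-SALL4 ZnF1-2 fusion plus mCherry reporter were treated with compound titrations (0.5% DMSO) for 5 hours. Imaging at 488/561 nm gave, per well, the fraction of GFP-positive among mCherry-positive cells.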

GSPT1 = GSPT1 (Homo sapiens, UniProt P15170+Q96SW2); experiment: Cellular degradation assay, eGFP-GSPT1 fusion with mCherry reporter in Flp-In 293 cells; assay type: cell-based; design: expressed in transfected cells; host or cells: Flp-In 293; conditions: 5 h incubation, n=1
Sequence of GSPT1 (P15170 whole entry, the tested form may be a part): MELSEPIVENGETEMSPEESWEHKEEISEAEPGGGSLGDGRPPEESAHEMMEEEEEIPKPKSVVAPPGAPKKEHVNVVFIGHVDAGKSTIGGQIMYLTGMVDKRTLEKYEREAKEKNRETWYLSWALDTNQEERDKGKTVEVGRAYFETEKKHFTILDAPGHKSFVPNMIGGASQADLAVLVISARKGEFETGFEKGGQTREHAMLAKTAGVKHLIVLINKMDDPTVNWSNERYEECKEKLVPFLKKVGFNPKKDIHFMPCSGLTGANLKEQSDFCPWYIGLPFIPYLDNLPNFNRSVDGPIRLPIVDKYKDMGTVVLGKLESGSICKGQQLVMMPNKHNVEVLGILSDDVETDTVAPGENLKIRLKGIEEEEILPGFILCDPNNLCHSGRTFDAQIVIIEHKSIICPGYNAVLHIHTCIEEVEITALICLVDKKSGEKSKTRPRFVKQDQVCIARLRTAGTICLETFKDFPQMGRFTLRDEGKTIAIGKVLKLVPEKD
Sequence of GSPT1 (Q96SW2 whole entry, the tested form may be a part): as the sequence (Q96SW2 whole entry partner, the tested form may be a part) above
Sequence of GSPT1 (Q16531 whole entry partner, the tested form may be a part): as the sequence (Q16531 whole entry partner, the tested form may be a part) above
Outline: as §1

[1] = compound concentration 6.6667E−05
[2] = compound concentration 6.6667E−06
[3] = compound concentration 6.6667E−07 (667 nM)
[4] = compound concentration 2.00E−05
[5] = compound concentration 2.00E−06
[6] = compound concentration 2.00E−07

T1 sequence (Q96SW2 whole entry): as the sequence (Q96SW2 whole entry partner, the tested form may be a part) above
T1 sequence (Q9UKS7 whole entry): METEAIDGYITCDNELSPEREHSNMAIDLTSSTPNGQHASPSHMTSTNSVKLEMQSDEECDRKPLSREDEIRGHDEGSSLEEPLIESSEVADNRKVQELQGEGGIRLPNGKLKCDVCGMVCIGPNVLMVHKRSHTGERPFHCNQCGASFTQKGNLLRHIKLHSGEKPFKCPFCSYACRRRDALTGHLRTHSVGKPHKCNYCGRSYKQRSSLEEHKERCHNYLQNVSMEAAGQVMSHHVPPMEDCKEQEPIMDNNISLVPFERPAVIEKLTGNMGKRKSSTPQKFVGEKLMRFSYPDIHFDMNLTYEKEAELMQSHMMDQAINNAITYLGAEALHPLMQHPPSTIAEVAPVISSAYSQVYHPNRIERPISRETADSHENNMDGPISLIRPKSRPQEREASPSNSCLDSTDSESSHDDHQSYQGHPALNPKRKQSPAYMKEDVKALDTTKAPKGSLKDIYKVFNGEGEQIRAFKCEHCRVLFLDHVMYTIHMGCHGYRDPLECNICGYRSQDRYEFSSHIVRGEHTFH

Row | SMILES | TR-FRET-IKZF2 (Normalized to CC-885) (CRBN and Helios (IKZF2); [1]) | TR-FRET-IKZF2 (Normalized to CC-885) (CRBN and Helios (IKZF2); [2]) | TR-FRET-IKZF2 (Normalized to CC-885) (CRBN and Helios (IKZF2); [3]) | IKZF2 GFP/RFP Relative Abundance (IKZF2; [4]) | IKZF2 GFP/RFP Relative Abundance (IKZF2; [5]) | IKZF2 GFP/RFP Relative Abundance (IKZF2; [6]) | IKZF1 GFP/RFP Relative Abundance (IKZF1; [4]) | IKZF1 GFP/RFP Relative Abundance (IKZF1; [5]) | IKZF1 GFP/RFP Relative Abundance (IKZF1; [6]) | SALL4 ZNF1-2 GFP/RFP Relative Abundance (SALL4 ZNF1-2; [4]) | SALL4 ZNF1-2 GFP/RFP Relative Abundance (SALL4 ZNF1-2; [5]) | SALL4 ZNF1-2 GFP/RFP Relative Abundance (SALL4 ZNF1-2; [6]) | GSPT1 GFP/RFP Relative Abundance (GSPT1; [4]) | GSPT1 GFP/RFP Relative Abundance (GSPT1; [5]) | GSPT1 GFP/RFP Relative Abundance (GSPT1; [6])
1 | Cc1ccc(NC(=O)Nc2cccc(NC3=CC(=O)N(C4CCC(=O)NC4=O)C3=O)c2)cc1Cl (stereo not drawn) [Compound 43, 1-(3-chloro-4-methylphenyl)-3-(3-((1-(2,6-dioxopiperidin-3-yl)-2,5-dioxo-2,5-dihydro-1H-pyrrol-3-yl)amino)phenyl)urea] | 0.443 | 0.353 | 0.278 | 1.054 | 1.007 | 0.980 | 0.996 | 0.240 | 0.301 | 1.072 | 0.897 | 0.888 | 0.083 | 0.072 | 0.087
2 | Cc1ccc(NC(=O)NCc2ccccc2NC2=CC(=O)N(C3CCC(=O)NC3=O)C2=O)cc1Cl (stereo not drawn) [Compound 45, 1-(3-chloro-4-methylphenyl)-3-(2-((1-(2,6-dioxopiperidin-3-yl)-2,5-dioxo-2,5-dihydro-1H-pyrrol-3-yl)amino)benzyl)urea] | 0.079 | 0.059 | 0.051 | 1.015 | 1.022 | 1.022 | 0.957 | 1.027 | 1.060 | 1.059 | 0.993 | 0.948 | 0.476 | 0.921 | 1.093
3 | Cc1ccc(NC(=O)NCc2ccc(NC3=CC(=O)N(C4CCC(=O)NC4=O)C3=O)cc2)cc1Cl (stereo not drawn) [Compound 46, 1-(3-chloro-4-methylphenyl)-3-(4-((1-(2,6-dioxopiperidin-3-yl)-2,5-dioxo-2,5-dihydro-1H-pyrrol-3-yl)amino)benzyl)urea] | 0.787 | 0.828 | 0.701 | 0.242 | 0.361 | 0.510 | 0.045 | 0.087 | 0.112 | 0.950 | 0.906 | 0.854 | 0.048 | 0.089 | 0.076
